Measured values as given in ChEMBL document CHEMBL3774307, “Synthesis, Characterization, and DNA Binding Profile of a Macrocyclic β-Sheet Analogue of ARC Protein” (ACS Med Chem Lett, 2015).
Active and inactive are the calls of the source. The rule behind the calls is not given here. Positions of bridges follow the written chain, without caps; N, C: chain ends. Non-standard residues stand in square brackets, D forms with d. Residues, ends and D or L forms follow the SMILES beside them. Chains are numbered I, II in the order given. Orn = NCCC[C@H](N)C(=O)O

What was measured:
[1] = Binding affinity to 5'-ATGACTCAT-3' AP-1 dsDNA (unknown origin) by isothermal titration calorimetry
[2] = Binding affinity to 5'-ATGACGTCAT-3' ATF/CREB dsDNA (unknown origin) by isothermal titration calorimetry
[3] = Binding affinity to 5'-GCGAGCACAGCTTTTTGCTGTGCTCGC-3' dsDNA (unknown origin) by ethidium bromide displacement assay
[4] = Binding affinity to 5'-GCGAGCACAGCTTTTTGCTGTGCTCGC-3' dsDNA (unknown origin) by tryptophan fluorescence spectroscopic analysis
[5] = Binding affinity to 5'-GCGAGTAGAGCTTTTTGCTCTACTCGC-3' dsDNA (unknown origin) by ethidium bromide displacement assay
[6] = Binding affinity to 5'-GCGAGTAGAGCTTTTTGCTCTACTCGC-3' dsDNA (unknown origin) by tryptophan fluorescence spectroscopic analysis

Q: For CC(=O)N[C@@H](CC(=O)O)C(=O)N1CCC[C@H]1C(=O)N[C@@H](C)C(=O)N[C@@H](C)C(=O)N[C@@H](CC(C)C)C(=O)N[C@@H](CCCCN)C(=O)N[C@@H](CCCNC(=N)N)C(=O)N[C@@H](C)C(=O)N[C@@H](CCCNC(=N)N)C(=O)N[C@@H](CC(N)=O)C(=O)N[C@H](C(=O)N[C@@H](CCC(=O)O)C(=O)N[C@@H](C)C(=O)N[C@@H](C)C(=O)N[C@@H](CCCNC(=N)N)C(=O)N[C@@H](CCCNC(=N)N)C(=O)N[C@@H](CO)C(=O)N[C@@H](CCCNC(=N)N)C(=O)N[C@@H](C)C(=O)N[C@@H](CCCNC(=N)N)C(=O)N[C@@H](CCCCN)C(=O)N[C@@H](CC(C)C)C(=O)N[C@@H](CCC(N)=O)C(=O)N[C@@H](CCCNC(=N)N)C(=O)N[C@@H](CC(C)C)C(=O)N[C@@H](CCCCN)C(=O)N[C@@H](CCC(N)=O)C(N)=O)[C@@H](C)O (Ac-DPAALKRARNTEAARRSRARKLQRLKQ-NH2), which Kd [1] is on record?
A: 20 µM

Q: What about the Kd [2] of the same compound?
A: 20 µM

Q: Which results are given for CC(C)C[C@@H]1NC(=O)[C@H](CC(N)=O)NC(=O)[C@H](Cc2ccccc2)NC(=O)[C@H](CCC(N)=O)NC(=O)[C@H](CCCCN)NC(=O)[C@@H](N)CCCNC(=O)[C@H](Cc2c[nH]c3ccccc23)NC(=O)[C@H](CCCNC(=N)N)NC(=O)[C@H](CC(C)C)NC(=O)[C@H](CC(N)=O)NC(=O)[C@H](Cc2ccccc2)NC(=O)[C@H](CCC(N)=O)NC(=O)[C@H](CCCCN)NC(=O)[C@@H](N)CCCNC(=O)[C@H](Cc2c[nH]c3ccccc23)NC(=O)[C@H](CCCNC(=N)N)NC1=O (I: H-[Orn]KQFNLRW / II: H-[Orn]KQFNLRW; amide I:1-II:C, I:C-II:1)?
A: Activity [3]: Active; Activity [4]: Active; Kd [5]: 2.1 µM; Activity [6]: Active
